Laboratory results from paper PMC3684613 (PLoS ONE, 2013).
pEC50: −log10 of the molar value. Where two headings read alike, the source gives them in different places.

Tests used:
[1] = system: P. falciparum 3D7; parameters: method as in ChEMBL-NTD; conditions: ref ChEMBL-NTD, cited from earlier work
[2] = system: P. falciparum 3D7; assay: DAPI stain fluorescent high content imaging assay, P. falciparum 3D7 (confirmatory screen, Avery); conditions: Plasmodium falciparum; for pEC50: 3D7, read-out: EC50_nM; for inhibition of growth at 5 µM: 3D7, read-out: percent_inh @ 5 uM
[3] = values follow the order of the source (GNF; GSK; StJude)
[4] = original screening data, source (GSK, GNF, StJude), several values separated by ';' in order of sources

| Structure (SMILES) | pEC50 [2] | inhibition of growth at 5 µM [2] [%] | further results |
| --- | --- | --- | --- |
| Nc1ccc(-c2nc3cc(Oc4ccc(Oc5ccc6[nH]c(-c7ccc(N)cc7)nc6c5)cc4)ccc3[nH]2)cc1 [MMV011895] | 6.07 | 97 | pEC50 ([1]; source GNF): 6.54 |
| COc1ccc(C(=O)Nc2ccc(Cl)cc2C(=O)Nc2ccncc2)cc1 [MMV665799] |  | 93 | pEC50 ([1]; source GSK): 6.08 |
| CCCCCC(=O)N1c2ccccc2N=C2CC(c3ccc(OC)c(OC)c3)CC(O)=C2C1c1ccc(C(F)(F)F)cc1 (centres unmarked) [MMV085583] | 6.63 | 100 | pEC50 ([1]; source GNF (GNF-Pf id)): 6.97 |
| Cc1cc(Nc2ccc(Cl)cc2)n2nc(C(F)(F)F)nc2n1 [MMV011256] | 6.67 |  | pEC50 ([1]; source GSK (TCMDC id)): 6.93 |
| CCN(CC)CCNc1ccnc2cc3ccccc3cc12 [MMV006303] | 6.41 |  | pEC50 [1, 3]: 7.54 |
| CCOC(=O)c1cnc2c(CC)cccc2c1O [MMV498479] |  | 87 | pEC50 ([1]; source GNF (GNF-Pf ids)): 5.78 |
| O=C(NCc1ccco1)C1CCN(S(=O)(=O)c2ccc(Br)cc2)CC1 [MMV007430] | 6.03 | 93 | pEC50 [1, 4]: 6.44 |
| O=C(Nc1ccc(CN2CCOCC2)cc1)c1ccc(-c2ccc(Br)cc2)o1 [MMV665901] | 5.87 | 96 | pEC50 ([1]; source GSK): 5.95 |
| Oc1ccc(Br)cc1CN1CCN(Cc2ccc(Cl)cc2)CC1 [MMV665809] |  | 97 | pEC50 [1, 3]: 5.83 |
| CCCc1c(C)nc2ccccc2c1O [MMV666081] |  | 88 | pEC50 ([1]; source GNF): 6.20 |
| O=C(Nc1cccc(-c2nc3ccccc3[nH]2)c1)c1cccc(NC(=O)c2ccco2)c1 [MMV665883] | 6.13 | 95 | pEC50 [1, 4]: 6.44 |
| Cc1ccc(C2CC(C(F)(F)F)n3nc(C(=O)N4CCN(C(c5ccccc5)c5ccccc5)CC4)cc3N2)cc1 (centres unmarked) [MMV000699] | 6.34 | 98 | pEC50 ([1]; source StJude (SJ ids)): 6.17 |
| CCOc1cc(Cl)c(C(C)NC(=O)c2ccccc2)cc1OCC (centres unmarked) [MMV665800] | 5.86 | 96 | pEC50 ([1]; source GSK): 6.06 |
| CCN1CCN(c2cc(C)c3cc(NC(=O)c4ccc(OC)c(OC)c4)ccc3n2)CC1 [MMV019074] |  | 99 | pEC50 ([1]; source GSK): 5.99 |
| O=C(Cc1ccccc1)NC(c1ccc(Cl)cc1)c1c(O)ccc2ccccc12 (centres unmarked) [MMV665972] | 5.94 | 97 | pEC50 [1, 3]: 4.82 |
| COc1cc(C(=O)ON=C(N)Cc2cccc3ccccc23)cc(OC)c1OC [MMV666687] | 6.11 | 99 | pEC50 [1, 3]: 6.55 |
| COc1nc(Nc2ccc(C(C)C)cc2)nc(OC)n1 [MMV007808] | 5.94 | 88 | pEC50 [1, 4]: 6.17 |
| O=C(NC(c1ccccc1)c1ccc2cccnc2c1O)c1ccccc1 (centres unmarked) [MMV666080] | 5.93 | 95 | pEC50 ([1]; source GNF): 6.27; pEC50 ([1]; source GSK): 6.37 |
| COc1ccc(-c2nonc2NC(=O)c2cccc(C)c2)cc1OC [MMV665890] |  | 95 | pEC50 [1, 4]: 6.09 |
| COc1ccc(C(=O)Nc2ccc3nc(N4CCCCC4)cc(C)c3c2)cc1OC [MMV019758] |  | 76 | pEC50 ([1]; source GSK): 6.00 |
| COC(=O)c1ccc(C2C3=C(O)CC(c4ccc(F)cc4)CC3=Nc3ccccc3N2C(=O)c2ccccc2)cc1 (centres unmarked) [MMV011438] | 6.49 | 98 | pEC50 [1, 3]: 6.48 |
| O=[N+]([O-])c1ccc(C=NNc2nc3ccccc3[nH]2)cc1 [MMV666607] | 6.85 | 99 | pEC50 ([1]; source GNF (GNF-Pf id)): 6.09; pEC50 ([1]; source GSK (TCMDC id)): 6.55 |
| COc1ccc(NC(=O)C2c3ccccc3C(=O)N(CC(C)C)C2c2cccs2)cc1Cl (centres unmarked) [MMV000642] | 7.69 | 100 | pEC50 ([1]; source GNF (GNF-Pf id)): 7.04; pEC50 ([1]; source StJude (SJ id)): 6.93 |
| CN(C)CCCNCc1ccc(-c2ccc(F)c(Cl)c2)o1 [MMV020505] | 6.06 | 96 | pEC50 ([1]; source GSK (TCMDC ids)): 6.10 |
| CCOc1cc(Cl)c(C(C)NC(=O)c2cccc(OC)c2)cc1OCC (centres unmarked) [MMV665803] | 6.14 | 98 | pEC50 ([1]; source GSK): 6.02 |
| CCC(c1ccccc1)c1nn2c(-c3cccs3)nnc2s1 (centres unmarked) [MMV665876] | 6.59 | 99 | pEC50 ([1]; source GSK (TCMDC id)): 6.78 |
| CCCCOc1ccc(C(=O)Nc2cc(C)on2)cc1 [MMV007906] |  | 73 | pEC50 [1, 4]: 5.50 |
| COc1ccc(-n2ccnc2SCC(=O)Nc2cc(C)ccc2C)c(OC)c1 [MMV019258] | 6.77 | 95 | pEC50 ([1]; source GSK (TCMDC id)): 6.69 |
| O=C(Nc1ccc(CN2CCOCC2)cc1)c1ccc(-c2cc(Cl)ccc2Cl)o1 [MMV020651] | 5.71 | 97 | pEC50 [1, 4]: 6.21 |
